In ChEMBL document CHEMBL3352489, “6-Hydroxyquinolinium salts differing in the length of alkyl side-chain: synthesis and antimicrobial activity” (Bioorg Med Chem Lett, 2014):

Legend:
Trichosporon asahii [1] = test: microbe, parasite or virus in culture; assay type: functional; conditions: Trichosporon asahii, 1188, 48 h
Description: Antifungal activity against Trichosporon asahii 1188 after 48 hrs by modified standard CSLI M27-A2 method

Candida albicans [2] = test: microbe, parasite or virus in culture; assay type: functional; conditions: ATCC 44859, 24 h
Description: Antifungal activity against Candida albicans ATCC 44859 after 24 hrs by modified standard CSLI M27-A2 method

Staphylococcus aureus [3] = test: microbe, parasite or virus in culture; assay type: functional; conditions: CCM 4516/08, 24 h
Description: Antibacterial activity against Staphylococcus aureus CCM 4516/08 after 24 hrs by microdilution broth method

[4] = tested on: Trichophyton mentagrophytes; test: microbe, parasite or virus in culture; assay type: functional; conditions: Trichophyton mentagrophytes, 445, 120 h
Description: Antifungal activity against Trichophyton mentagrophytes 445 after 120 hrs by modified standard CSLI M27-A2 method

Pichia kudriavzevii [5] = test: Antifungal activity against Candida krusei E28 after 24 hrs by modified standard CSLI M27-A2 method; assay type: functional; conditions: E28, 24 h
Trichosporon asahii [6] = test: microbe, parasite or virus in culture; assay type: functional; conditions: Trichosporon asahii, 1188, 24 h
Description: Antifungal activity against Trichosporon asahii 1188 after 24 hrs by modified standard CSLI M27-A2 method

Klebsiella pneumoniae [7] = test: microbe, parasite or virus in culture; assay type: functional; conditions: D 11750/08, 24 h
Description: Antibacterial activity against Klebsiella pneumoniae D 11750/08 after 24 hrs by microdilution broth method

Aspergillus fumigatus [8] = test: microbe, parasite or virus in culture; assay type: functional; conditions: Aspergillus fumigatus, 231, 24 h
Description: Antifungal activity against Aspergillus fumigatus 231 after 24 hrs by modified standard CSLI M27-A2 method

Trichosporon asahii [9] = test: Fungicidal activity against Trichosporon asahii 1188 after 48 hrs by modified standard CSLI M27-A2 method; assay type: functional; conditions: Trichosporon asahii, 1188, 48 h
Aspergillus fumigatus [10] = test: microbe, parasite or virus in culture; assay type: functional; conditions: Aspergillus fumigatus, 231, 48 h
Description: Antifungal activity against Aspergillus fumigatus 231 after 48 hrs by modified standard CSLI M27-A2 method

Lichtheimia corymbifera [11] = test: microbe, parasite or virus in culture; assay type: functional; conditions: Lichtheimia corymbifera, 272, 24 h
Description: Antifungal activity against Absidia corymbifera 272 after 24 hrs by modified standard CSLI M27-A2 method

Nakaseomyces glabratus [12] = test: Antifungal activity against Candida glabrata 20/I after 48 hrs by modified standard CSLI M27-A2 method; assay type: functional
Candida albicans [13] = test: microbe, parasite or virus in culture; assay type: functional; conditions: ATCC 44859, 48 h
Description: Antifungal activity against Candida albicans ATCC 44859 after 48 hrs by modified standard CSLI M27-A2 method

Candida tropicalis [14] = test: microbe, parasite or virus in culture; assay type: functional; conditions: Candida tropicalis, 156, 24 h
Description: Antifungal activity against Candida tropicalis 156 after 24 hrs by modified standard CSLI M27-A2 method

Lichtheimia corymbifera [15] = test: Fungicidal activity against Absidia corymbifera 272 after 48 hrs by modified standard CSLI M27-A2 method; assay type: functional; conditions: Lichtheimia corymbifera, 272, 48 h
Staphylococcus aureus [16] = test: Bactericidal activity against Staphylococcus aureus H 5996/08 after 48 hrs by microdilution broth method; assay type: functional; conditions: H 5996/08, 48 h, read-out: MBC>99.9
Enterococcus sp. [17] = test: microbe, parasite or virus in culture; assay type: functional; conditions: J 14365/08, 48 h
Description: Antibacterial activity against Enterococcus sp. J 14365/08 after 48 hrs by microdilution broth method

Lichtheimia corymbifera [18] = test: microbe, parasite or virus in culture; assay type: functional; conditions: Lichtheimia corymbifera, 272, 48 h
Description: Antifungal activity against Absidia corymbifera 272 after 48 hrs by modified standard CSLI M27-A2 method

[19] = tested on: Staphylococcus epidermidis; test: microbe, parasite or virus in culture; assay type: functional; conditions: H 6966/08, 48 h
Description: Antibacterial activity against Staphylococcus epidermidis H 6966/08 after 48 hrs by microdilution broth method

Staphylococcus aureus [20] = test: microbe, parasite or virus in culture; assay type: functional; conditions: CCM 4516/08, 48 h
Description: Antibacterial activity against Staphylococcus aureus CCM 4516/08 after 48 hrs by microdilution broth method

Staphylococcus aureus [21] = test: microbe, parasite or virus in culture; assay type: functional; conditions: H 5996/08, 24 h
Description: Antibacterial activity against Staphylococcus aureus H 5996/08 after 24 hrs by microdilution broth method

Pseudomonas aeruginosa [22] = test: Bactericidal activity against Pseudomonas aeruginosa CCM 1961 after 120 hrs by microdilution broth method; assay type: functional; conditions: CCM 1961, 120 h, read-out: MBC>99.9
Candida tropicalis [23] = test: Fungicidal activity against Candida tropicalis 156 after 48 hrs by modified standard CSLI M27-A2 method; assay type: functional; conditions: Candida tropicalis, 156, 48 h
Candida tropicalis [24] = test: microbe, parasite or virus in culture; assay type: functional; conditions: Candida tropicalis, 156, 48 h
Description: Antifungal activity against Candida tropicalis 156 after 48 hrs by modified standard CSLI M27-A2 method

Pseudomonas aeruginosa [25] = test: microbe, parasite or virus in culture; assay type: functional; conditions: CCM 1961, 120 h
Description: Antibacterial activity against Pseudomonas aeruginosa CCM 1961 after 120 hrs by microdilution broth method

[26] = tested on: Staphylococcus epidermidis; test: microbe, parasite or virus in culture; assay type: functional; conditions: H 6966/08, 24 h
Description: Antibacterial activity against Staphylococcus epidermidis H 6966/08 after 24 hrs by microdilution broth method

Klebsiella pneumoniae [27] = test: microbe, parasite or virus in culture; assay type: functional; conditions: J 14368/08, 24 h
Description: Antibacterial activity against Klebsiella pneumoniae J 14368/08 after 24 hrs by microdilution broth method

Nakaseomyces glabratus [28] = test: Fungicidal activity against Candida glabrata 20/I after 48 hrs by modified standard CSLI M27-A2 method; assay type: functional
Staphylococcus aureus [29] = test: microbe, parasite or virus in culture; assay type: functional; conditions: H 5996/08, 48 h
Description: Antibacterial activity against Staphylococcus aureus H 5996/08 after 48 hrs by microdilution broth method

Enterococcus sp. [30] = test: Bactericidal activity against Enterococcus sp. J 14365/08 after 48 hrs by microdilution broth method; assay type: functional; conditions: J 14365/08, 48 h, read-out: MBC>99.9
Pichia kudriavzevii [31] = test: Antifungal activity against Candida krusei E28 after 48 hrs by modified standard CSLI M27-A2 method; assay type: functional; conditions: E28, 48 h
Klebsiella pneumoniae [32] = test: microbe, parasite or virus in culture; assay type: functional; conditions: D 11750/08, 48 h
Description: Antibacterial activity against Klebsiella pneumoniae D 11750/08 after 48 hrs by microdilution broth method

[33] = tested on: Trichophyton mentagrophytes; test: Fungicidal activity against Trichophyton mentagrophytes 445 after 120 hrs by modified standard CSLI M27-A2 method; assay type: functional; conditions: Trichophyton mentagrophytes, 445, 120 h
Klebsiella pneumoniae [34] = test: Bactericidal activity against Klebsiella pneumoniae J 14368/08 after 48 hrs by microdilution broth method; assay type: functional; conditions: J 14368/08, 48 h, read-out: MBC>99.9
[35] = tested on: Staphylococcus epidermidis; test: Bactericidal activity against Staphylococcus epidermidis H 6966/08 after 48 hrs by microdilution broth method; assay type: functional; conditions: H 6966/08, 48 h, read-out: MBC>99.9
Klebsiella pneumoniae [36] = test: microbe, parasite or virus in culture; assay type: functional; conditions: J 14368/08, 48 h
Description: Antibacterial activity against Klebsiella pneumoniae J 14368/08 after 48 hrs by microdilution broth method

Klebsiella pneumoniae [37] = test: Bactericidal activity against Klebsiella pneumoniae D 11750/08 after 24 hrs by microdilution broth method; assay type: functional; conditions: D 11750/08, 24 h, read-out: MBC>99.9
Pseudomonas aeruginosa [38] = test: microbe, parasite or virus in culture; assay type: functional; conditions: CCM 1961, 72 h
Description: Antibacterial activity against Pseudomonas aeruginosa CCM 1961 after 72 hrs by microdilution broth method

Enterococcus sp. [39] = test: microbe, parasite or virus in culture; assay type: functional; conditions: J 14365/08, 24 h
Description: Antibacterial activity against Enterococcus sp. J 14365/08 after 24 hrs by microdilution broth method

[40] = tested on: Trichophyton mentagrophytes; test: microbe, parasite or virus in culture; assay type: functional; conditions: Trichophyton mentagrophytes, 445, 72 h
Description: Antifungal activity against Trichophyton mentagrophytes 445 after 72 hrs by modified standard CSLI M27-A2 method

Escherichia coli [41] = test: microbe, parasite or virus in culture; assay type: functional; conditions: CCM 4517, 48 h
Description: Antibacterial activity against Escherichia coli CCM 4517 after 48 hrs by microdilution broth method

Pichia kudriavzevii [42] = test: Fungicidal activity against Candida krusei E28 after 48 hrs by modified standard CSLI M27-A2 method; assay type: functional; conditions: E28, 48 h
Escherichia coli [43] = test: Bactericidal activity against Escherichia coli CCM 4517 after 48 hrs by microdilution broth method; assay type: functional; conditions: CCM 4517, 48 h, read-out: MBC>99.9
Escherichia coli [44] = test: microbe, parasite or virus in culture; assay type: functional; conditions: CCM 4517, 24 h
Description: Antibacterial activity against Escherichia coli CCM 4517 after 24 hrs by microdilution broth method

[45] = Cytotoxicity against CHOK1 cells after 24 hrs by MTT assay; assay type: ADME, cell-based; conditions: Cricetulus griseus, CHO-K1, 24 h
Candida albicans [46] = test: Fungicidal activity against Candida albicans ATCC 44859 after 48 hrs by modified standard CSLI M27-A2 method; assay type: functional; conditions: ATCC 44859, 48 h
Aspergillus fumigatus [47] = test: Fungicidal activity against Aspergillus fumigatus 231 after 48 hrs by modified standard CSLI M27-A2 method; assay type: functional; conditions: Aspergillus fumigatus, 231, 48 h
Staphylococcus aureus [48] = test: Bactericidal activity against Staphylococcus aureus CCM 4516/08 after 48 hrs by microdilution broth method; assay type: functional; conditions: CCM 4516/08, 48 h, read-out: MBC>99.9
Nakaseomyces glabratus [49] = test: Antifungal activity against Candida glabrata 20/I after 24 hrs by modified standard CSLI M27-A2 method; assay type: functional

CCCCCCCCCCCCCCCC[N+](C)(C)Cc1ccccc1
MIC (Trichosporon asahii [1]): 7.81 µM
MIC (Candida albicans [2]): 3.91 µM
MIC95 (Staphylococcus aureus [3]): 0.98 µM
MIC [4]: 7.81 µM
MIC (Pichia kudriavzevii [5]): 1.95 µM
MIC (Trichosporon asahii [6]): 7.81 µM
MIC95 (Klebsiella pneumoniae [7]): 7.81 µM
MIC (Aspergillus fumigatus [8]): 7.81 µM
MFC (Trichosporon asahii [9]): 62.5 µM
MIC (Aspergillus fumigatus [10]): 7.81 µM
MIC (Lichtheimia corymbifera [11]): 7.81 µM
MIC (Nakaseomyces glabratus [12]): 3.91 µM
MIC (Candida albicans [13]): 7.81 µM
MIC (Candida tropicalis [14]): 3.91 µM
MFC (Lichtheimia corymbifera [15]): 62.5 µM
MBC (Staphylococcus aureus [16]): 3.91 µM
MIC95 (Enterococcus sp. [17]): 1.95 µM
MIC (Lichtheimia corymbifera [18]): 7.81 µM
MIC95 [19]: 0.49 µM
MIC95 (Staphylococcus aureus [20]): 0.98 µM
MIC95 (Staphylococcus aureus [21]): 1.95 µM
MBC (Pseudomonas aeruginosa [22]): 125 µM
MFC (Candida tropicalis [23]): 7.81 µM
MIC (Candida tropicalis [24]): 7.81 µM
MIC95 (Pseudomonas aeruginosa [25]): 31.2 µM
MIC95 [26]: 0.49 µM
MIC95 (Klebsiella pneumoniae [27]): 7.81 µM
MFC (Nakaseomyces glabratus [28]): 62.5 µM
MIC95 (Staphylococcus aureus [29]): 1.95 µM
MBC (Enterococcus sp. [30]): 3.91 µM
MIC (Pichia kudriavzevii [31]): 1.95 µM
MIC95 (Klebsiella pneumoniae [32]): 7.81 µM
MFC [33]: 62.5 µM
MBC (Klebsiella pneumoniae [34]): 7.81 µM
MBC [35]: 3.91 µM
MIC95 (Klebsiella pneumoniae [36]): 7.81 µM
MBC (Klebsiella pneumoniae [37]): 7.81 µM
MIC95 (Pseudomonas aeruginosa [38]): 15.6 µM
MIC95 (Enterococcus sp. [39]): 1.95 µM
MIC [40]: 7.81 µM
MIC95 (Escherichia coli [41]): 7.81 µM
MFC (Pichia kudriavzevii [42]): 1.95 µM
MBC (Escherichia coli [43]): 7.81 µM
MIC95 (Escherichia coli [44]): 7.81 µM
IC50 [45]: 15 µM
MFC (Candida albicans [46]): 7.81 µM
MFC (Aspergillus fumigatus [47]): 62.5 µM
MBC (Staphylococcus aureus [48]): 3.91 µM
MIC (Nakaseomyces glabratus [49]): 1.95 µM
